The test system of this experiment is L1210 leukemia ip in BDF1 mice, survival T/C. Kind of experiment: NCI In Vivo Anticancer Drug Screen. Data for tumor model L1210 Leukemia (intraperitoneal) in B6D2F1 (BDF1) mice. Conditions: endpoint: mean survival time, higher = longer survival. An outline of the steps: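 Read-out is survival time, reported as the treated-group measurement over the vehicle-control measurement.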

Several values for one entry are separate records, joined by “and”; a condition that tells them apart may be missing. Equal entries are not always repeated. Inconclusive results and toxic doses are left out.

For `Nc1ncc(C(=O)O)c(N)n1`, the T/C by setting is: (dose: 12.5 mg/kg/injection, schedule: Q01DX001 (ip), vehicle: other) 101 % of control; (dose: 12.5 mg/kg/injection, schedule: Q01DX009 (ip), vehicle: saline with Tween-80) 110 % of control; (dose: 12.5 mg/kg/injection, schedule: Q04DX003 (ip), vehicle: saline with Tween-80) 101 % of control; (dose: 25.0 mg/kg/injection, schedule: Q01DX001 (ip), vehicle: other) 97 % of control; (dose: 25.0 mg/kg/injection, schedule: Q01DX009 (ip), vehicle: saline with Tween-80) 107 % of control; (dose: 25.0 mg/kg/injection, schedule: Q04DX003 (ip), vehicle: saline with Tween-80) 104 % of control. The T/C is, setting by setting: (dose: 50.0 mg/kg/injection, schedule: Q01DX001 (ip), vehicle: other) 101 % of control; (dose: 50.0 mg/kg/injection, schedule: Q01DX009 (ip), vehicle: saline with Tween-80) 102 % of control; (dose: 50.0 mg/kg/injection, schedule: Q04DX003 (ip), vehicle: saline with Tween-80) 108 % of control; (dose: 100.0 mg/kg/injection, schedule: Q01DX001 (ip), vehicle: other) 103 % of control.

In the case of `CC1(C)C(=O)N(Br)C(=O)N1Br`, the T/C runs as follows: (dose: 12.5 mg/kg/injection, schedule: Q04DX003 (ip), vehicle: Klucel (hydroxypropylcellulose) (HPC)) 92 % of control; (dose: 25.0 mg/kg/injection, schedule: Q04DX003 (ip), vehicle: Klucel (hydroxypropylcellulose) (HPC)) 103 % of control; (dose: 50.0 mg/kg/injection, schedule: Q04DX003 (ip), vehicle: Klucel (hydroxypropylcellulose) (HPC)) 103 % of control.

Take `CN(C)P1(=O)NCCCO1` (stereo not given): the T/C (dose: 100.0 mg/kg/injection, schedule: Q01DX001 (ip), vehicle: saline) is 100 % of control; the T/C (dose: 200.0 mg/kg/injection, schedule: Q01DX001 (ip), vehicle: saline) was 110 % of control; the T/C (dose: 400.0 mg/kg/injection, schedule: Q01DX001 (ip), vehicle: saline) is 109 % of control.

With `CCCOC1=C(N2CC2)C(=O)C(OCCC)=C(N2CC2)C1=O`, the T/C (dose: 0.23 mg/kg/injection, schedule: Q01DX009 (ip), vehicle: Klucel (hydroxypropylcellulose) (HPC)) was 103 % of control; the T/C (dose: 0.46 mg/kg/injection, schedule: Q01DX009 (ip), vehicle: Klucel (hydroxypropylcellulose) (HPC)) is 107 % of control; the T/C (dose: 0.62 mg/kg/injection, schedule: Q#A X Z (ip), vehicle: alkali diluted with saline) was 113 % of control; the T/C (dose: 0.93 mg/kg/injection, schedule: Q01DX009 (ip), vehicle: Klucel (hydroxypropylcellulose) (HPC)) is 108 % of control; the T/C (dose: 1.25 mg/kg/injection, schedule: Q01DX006 (iv), vehicle: alkali diluted with saline) is 113 % of control; the T/C (dose: 1.25 mg/kg/injection, schedule: Q01DX Z (im), vehicle: alkali diluted with saline) was 113 % of control. Further, the T/C runs as follows: (dose: 1.25 mg/kg/injection, schedule: Q01DX Z (ip), vehicle: alkali diluted with saline) 104 % of control; (dose: 1.25 mg/kg/injection, schedule: Q01DX Z (sc), vehicle: alkali diluted with saline) 113 % of control; (dose: 1.25 mg/kg/injection, schedule: Q#A X Z (ip), vehicle: alkali diluted with saline) 121 % of control; (dose: 1.87 mg/kg/injection, schedule: Q01DX009 (ip), vehicle: Klucel (hydroxypropylcellulose) (HPC)) 114 % of control; (dose: 1.87 mg/kg/injection, schedule: Q04DX003 (ip), vehicle: Klucel (hydroxypropylcellulose) (HPC)) 106 % of control; (dose: 2.5 mg/kg/injection, schedule: Q01DX006 (iv), vehicle: alkali diluted with saline) 109 % of control. Further, the T/C was 122 % of control (dose: 2.5 mg/kg/injection, schedule: Q01DX Z (im), vehicle: alkali diluted with saline); 110 % of control (dose: 2.5 mg/kg/injection, schedule: Q01DX Z (sc), vehicle: alkali diluted with saline); 107 % of control (dose: 3.0 mg/kg/injection, schedule: Q03DX006 (ip), vehicle: alkali diluted with saline); 122 % of control (dose: 3.75 mg/kg/injection, schedule: Q01DX009 (ip), vehicle: Klucel (hydroxypropylcellulose) (HPC)); 118 % of control (dose: 3.75 mg/kg/injection, schedule: Q04DX003 (ip), vehicle: Klucel (hydroxypropylcellulose) (HPC)); 122 % of control (dose: 5.0 mg/kg/injection, schedule: Q01DX006 (iv), vehicle: alkali diluted with saline). Further, the T/C is, setting by setting: (dose: 5.0 mg/kg/injection, schedule: Q01DX Z (oral), vehicle: alkali diluted with saline) 113 % of control; (dose: 5.0 mg/kg/injection, schedule: Q#A X Z (ip), vehicle: alkali diluted with saline) 158 % of control; (dose: 7.0 mg/kg/injection, schedule: Q03DX006 (ip), vehicle: alkali diluted with saline) 115 % of control; (dose: 10.0 mg/kg/injection, schedule: Q01DX001 (ip), vehicle: alkali diluted with saline) 112 % of control; (dose: 10.0 mg/kg/injection, schedule: Q01DX006 (iv), vehicle: alkali diluted with saline) 115 % of control; (dose: 10.0 mg/kg/injection, schedule: Q01DX Z (im), vehicle: alkali diluted with saline) 163 % of control. Also, the T/C (dose: 10.0 mg/kg/injection, schedule: Q01DX Z (oral), vehicle: alkali diluted with saline) is 115 % of control; the T/C (dose: 10.0 mg/kg/injection, schedule: Q07DX003 (ip), vehicle: alkali diluted with saline) was 96 % of control; the T/C (dose: 15.0 mg/kg/injection, schedule: Q03DX006 (ip), vehicle: alkali diluted with saline) was 153 % of control; the T/C (dose: 20.0 mg/kg/injection, schedule: Q01DX001 (ip), vehicle: alkali diluted with saline) is 104 % of control and 115 % of control; the T/C (dose: 20.0 mg/kg/injection, schedule: Q01DX006 (iv), vehicle: alkali diluted with saline) is 103 % of control; the T/C (dose: 20.0 mg/kg/injection, schedule: Q01DX Z (im), vehicle: alkali diluted with saline) was 94 % of control. Moreover, the T/C runs as follows: (dose: 20.0 mg/kg/injection, schedule: Q01DX Z (sc), vehicle: alkali diluted with saline) 120 % of control; (dose: 20.0 mg/kg/injection, schedule: Q07DX003 (ip), vehicle: alkali diluted with saline) 106 % of control; (dose: 20.0 mg/kg/injection, schedule: Q#A X Z (ip), vehicle: alkali diluted with saline) 103 % of control; (dose: 30.0 mg/kg/injection, schedule: Q03DX006 (ip), vehicle: alkali diluted with saline) 117 % of control; (dose: 30.0 mg/kg/injection, schedule: Q04DX003 (ip), vehicle: Klucel (hydroxypropylcellulose) (HPC)) 102 % of control; (dose: 40.0 mg/kg/injection, schedule: Q01DX001 (ip), vehicle: alkali diluted with saline) 118 % of control. The T/C is 123 % of control (dose: 40.0 mg/kg/injection, schedule: Q01DX006 (iv), vehicle: alkali diluted with saline); 121 % of control (dose: 40.0 mg/kg/injection, schedule: Q01DX Z (im), vehicle: alkali diluted with saline); 106 % of control (dose: 40.0 mg/kg/injection, schedule: Q01DX Z (ip), vehicle: alkali diluted with saline); 113 % of control (dose: 40.0 mg/kg/injection, schedule: Q01DX Z (sc), vehicle: alkali diluted with saline); 124 % of control (dose: 40.0 mg/kg/injection, schedule: Q07DX003 (ip), vehicle: alkali diluted with saline); 124 % of control (dose: 80.0 mg/kg/injection, schedule: Q01DX001 (ip), vehicle: alkali diluted with saline). The T/C is 122 % of control (dose: 80.0 mg/kg/injection, schedule: Q01DX Z (oral), vehicle: alkali diluted with saline); 103 % of control (dose: 125.0 mg/kg/injection, schedule: Q01DX001 (ip), vehicle: alkali diluted with saline); 115 % of control and 121 % of control (dose: 160.0 mg/kg/injection, schedule: Q01DX001 (ip), vehicle: alkali diluted with saline); 111 % of control (dose: 160.0 mg/kg/injection, schedule: Q07DX003 (ip), vehicle: alkali diluted with saline); 107 % of control and 113 % of control (dose: 320.0 mg/kg/injection, schedule: Q01DX001 (ip), vehicle: alkali diluted with saline); 111 % of control (dose: 320.0 mg/kg/injection, schedule: Q07DX003 (ip), vehicle: alkali diluted with saline). Further, the T/C by setting is: (dose: 500.0 mg/kg/injection, schedule: Q01DX001 (ip), vehicle: alkali diluted with saline) 102 % of control; (dose: 640.0 mg/kg/injection, schedule: Q07DX003 (ip), vehicle: alkali diluted with saline) 123 % of control; (dose: 1000.0 mg/kg/injection, schedule: Q01DX001 (ip), vehicle: alkali diluted with saline) 106 % of control.

`CC(=O)OCC(C(=O)O)(c1ccccc1)c1ccccc1`: the T/C was 94 % of control (dose: 55.0 mg/kg/injection, schedule: Q01DX Z (ip), vehicle: methylcellulose (MC)); 98 % of control (dose: 83.0 mg/kg/injection, schedule: Q01DX Z (ip), vehicle: methylcellulose (MC)); 93 % of control (dose: 125.0 mg/kg/injection, schedule: Q01DX Z (ip), vehicle: methylcellulose (MC)).
